Laboratory results reported in PubChem BioAssay AID2060908 (Molecular Pharmacology Branch, DTP, NCI, 2025).
Each block holds one compound with its values, some of them ahead of it.

Test system: 186277-243-T-J2-PDC complex spheroids, viability
Test: Anticancer human tumor 186277-243-T-J2-PDC patient-derived colon adenocarcinoma cell line growth inhibition [RAS]
Settings: for IC50: curve of first compound; for viability, T/C: stronger effect = lower value
How it was run: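 Tumour cells grown as complex spheroids with HUVEC endothelial cells and mesenchymal stem cells, treated with RAS pathway inhibitor combinations. Each agent spans half-log steps from near clinical Cmax, or 10 microM where Cmax is unknown.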

[1] = second compound 0.0316 µM, first compound 0.0316 µM
[2] = second compound 0.0316 µM, first compound 0.1 µM
[3] = second compound 0.1 µM, first compound 0.0316 µM
[4] = second compound 0.1 µM, first compound 0.1 µM
[5] = second compound 0.316 µM, first compound 0.0316 µM
[6] = second compound 0.316 µM, first compound 0.1 µM
[7] = second compound 1 µM, first compound 0.0316 µM
[8] = second compound 1 µM, first compound 0.1 µM
[9] = second compound 3.16 µM, first compound 0.0316 µM
[10] = second compound 3.16 µM, first compound 0.1 µM
[11] = second compound 10 µM, first compound 0.0316 µM
[12] = second compound 10 µM, first compound 0.1 µM
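Further: spheroids exposed to compounds for 7 days before viability read.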

IC50 (second compound 0.0316 µM): < 0.0316 µM
IC50 (second compound 0.1 µM): < 0.0316 µM
IC50 (second compound 0.316 µM): < 0.0316 µM
IC50 (second compound 1 µM): < 0.0316 µM
IC50 (second compound 3.16 µM): < 0.0316 µM
IC50 (second compound 10 µM): < 0.0316 µM
SMILES: CC(Nc1ccc2c(c1)OCCn1cc(N3C(=O)OCC3C(F)F)nc1-2)C(N)=O (stereo unspecified) + C#Cc1c(F)ccc2cc(O)cc(-c3ncc4c(N5CC6CCC(C5)N6)nc(OCC56CCCN5CC(F)C6)nc4c3F)c12
viability, T/C [1]: 45.9%
viability, T/C [2]: 39.7%
viability, T/C (second compound 0.0316 µM, first compound 0.316 µM): 16.1%
viability, T/C (second compound 0.0316 µM, first compound 1 µM): 7.04%
viability, T/C (second compound 0.0316 µM, first compound 3.16 µM): 3.9%
viability, T/C (second compound 0.0316 µM, first compound 10 µM): 3.75%
viability, T/C [3]: 25.7%
viability, T/C [4]: 16%
viability, T/C (second compound 0.1 µM, first compound 0.316 µM): 4.89%
viability, T/C (second compound 0.1 µM, first compound 1 µM): 2.76%
viability, T/C (second compound 0.1 µM, first compound 3.16 µM): 1.89%
viability, T/C (second compound 0.1 µM, first compound 10 µM): 2.88%
viability, T/C [5]: 18.2%
viability, T/C [6]: 7.51%
viability, T/C (second compound 0.316 µM, first compound 0.316 µM): 2.9%
viability, T/C (second compound 0.316 µM, first compound 1 µM): 2.32%
viability, T/C (second compound 0.316 µM, first compound 3.16 µM): 1.28%
viability, T/C (second compound 0.316 µM, first compound 10 µM): 1.02%
viability, T/C [7]: 9.56%
viability, T/C [8]: 5.56%
viability, T/C (second compound 1 µM, first compound 0.316 µM): 2.6%
viability, T/C (second compound 1 µM, first compound 1 µM): 1.95%
viability, T/C (second compound 1 µM, first compound 3.16 µM): 1.11%
viability, T/C (second compound 1 µM, first compound 10 µM): 1.01%
viability, T/C [9]: 8.36%
viability, T/C [10]: 4.7%
viability, T/C (second compound 3.16 µM, first compound 0.316 µM): 2.45%
viability, T/C (second compound 3.16 µM, first compound 1 µM): 1.84%
viability, T/C (second compound 3.16 µM, first compound 3.16 µM): 3.64%
viability, T/C (second compound 3.16 µM, first compound 10 µM): 0.74%
viability, T/C [11]: 6.16%
viability, T/C [12]: 2.81%
viability, T/C (second compound 10 µM, first compound 0.316 µM): 1.2%
viability, T/C (second compound 10 µM, first compound 1 µM): 0.66%
viability, T/C (second compound 10 µM, first compound 3.16 µM): 0.3%
viability, T/C (second compound 10 µM, first compound 10 µM): 0.16%

IC50 (second compound 0.000949 µM): > 0.3 µM
IC50 (second compound 0.003 µM): 0.236 µM
IC50 (second compound 0.00949 µM): > 0.3 µM
IC50 (second compound 0.03 µM): > 0.3 µM
IC50 (second compound 0.0949 µM): 0.135 µM
IC50 (second compound 0.3 µM): 0.0361 µM
SMILES: CC1(C)CCC(Nc2ncc(C(F)(F)F)c(-c3c[nH]c4c(P(C)(C)=O)c(C#N)ccc34)n2)CN1 (stereo unspecified) + CCn1c(-c2cccnc2C(C)OC)c2c3cc(ccc31)N1CCOC(CC(NC(=O)C(C(C)C)N(C)C(=O)C3(F)CCN(C(=O)C#CC(C)(C)N(C)C)CC3)C(=O)N3CCCC(N3)C(=O)OCC(C)(C)C2)C1
viability, T/C (second compound 0.000949 µM, first compound 0.000949 µM): 79.3%
viability, T/C (second compound 0.000949 µM, first compound 0.003 µM): 84.8%
viability, T/C (second compound 0.000949 µM, first compound 0.00949 µM): 112%
viability, T/C (second compound 0.000949 µM, first compound 0.03 µM): 81.5%
viability, T/C (second compound 0.000949 µM, first compound 0.0949 µM): 57.9%
viability, T/C (second compound 0.000949 µM, first compound 0.3 µM): 51.6%
viability, T/C (second compound 0.003 µM, first compound 0.000949 µM): 100%
viability, T/C (second compound 0.003 µM, first compound 0.003 µM): 90.2%
viability, T/C (second compound 0.003 µM, first compound 0.00949 µM): 103%
viability, T/C (second compound 0.003 µM, first compound 0.03 µM): 83.5%
viability, T/C (second compound 0.003 µM, first compound 0.0949 µM): 58.6%
viability, T/C (second compound 0.003 µM, first compound 0.3 µM): 47.4%
viability, T/C (second compound 0.00949 µM, first compound 0.000949 µM): 104%
viability, T/C (second compound 0.00949 µM, first compound 0.003 µM): 104%
viability, T/C (second compound 0.00949 µM, first compound 0.00949 µM): 103%
viability, T/C (second compound 0.00949 µM, first compound 0.03 µM): 85.6%
viability, T/C (second compound 0.00949 µM, first compound 0.0949 µM): 56.3%
viability, T/C (second compound 0.00949 µM, first compound 0.3 µM): 50.5%
viability, T/C (second compound 0.03 µM, first compound 0.000949 µM): 92%
viability, T/C (second compound 0.03 µM, first compound 0.003 µM): 98.6%
viability, T/C (second compound 0.03 µM, first compound 0.00949 µM): 108%
viability, T/C (second compound 0.03 µM, first compound 0.03 µM): 85.1%
viability, T/C (second compound 0.03 µM, first compound 0.0949 µM): 57.9%
viability, T/C (second compound 0.03 µM, first compound 0.3 µM): 49.7%
viability, T/C (second compound 0.0949 µM, first compound 0.000949 µM): 107%
viability, T/C (second compound 0.0949 µM, first compound 0.003 µM): 103%
viability, T/C (second compound 0.0949 µM, first compound 0.00949 µM): 91.9%
viability, T/C (second compound 0.0949 µM, first compound 0.03 µM): 71.1%
viability, T/C (second compound 0.0949 µM, first compound 0.0949 µM): 53.3%
viability, T/C (second compound 0.0949 µM, first compound 0.3 µM): 43.3%
viability, T/C (second compound 0.3 µM, first compound 0.000949 µM): 102%
viability, T/C (second compound 0.3 µM, first compound 0.003 µM): 96.3%
viability, T/C (second compound 0.3 µM, first compound 0.00949 µM): 87.8%
viability, T/C (second compound 0.3 µM, first compound 0.03 µM): 51.9%
viability, T/C (second compound 0.3 µM, first compound 0.0949 µM): 36.8%
viability, T/C (second compound 0.3 µM, first compound 0.3 µM): 30.8%

IC50 (second compound 0.0316 µM): 0.0137 µM
IC50 (second compound 0.1 µM): 0.00183 µM
IC50 (second compound 0.316 µM): < 0.000316 µM
IC50 (second compound 1 µM): < 0.000316 µM
IC50 (second compound 3.16 µM): < 0.000316 µM
IC50 (second compound 10 µM): < 0.000316 µM
SMILES: CC(C)n1nc(-c2ccc3oc(N)nc3c2)c2c(N)ncnc21 + C#Cc1c(F)ccc2cc(O)cc(-c3ncc4c(N5CC6CCC(C5)N6)nc(OCC56CCCN5CC(F)C6)nc4c3F)c12
viability, T/C (second compound 0.0316 µM, first compound 0.000316 µM): 69.1%
viability, T/C (second compound 0.0316 µM, first compound 0.001 µM): 90.7%
viability, T/C (second compound 0.0316 µM, first compound 0.00316 µM): 58.6%
viability, T/C (second compound 0.0316 µM, first compound 0.01 µM): 51.7%
viability, T/C [1]: 44.2%
viability, T/C [2]: 25.9%
viability, T/C (second compound 0.1 µM, first compound 0.000316 µM): 63.1%
viability, T/C (second compound 0.1 µM, first compound 0.001 µM): 53.6%
viability, T/C (second compound 0.1 µM, first compound 0.00316 µM): 44.3%
viability, T/C (second compound 0.1 µM, first compound 0.01 µM): 37.8%
viability, T/C [3]: 19.9%
viability, T/C [4]: 7.3%
viability, T/C (second compound 0.316 µM, first compound 0.000316 µM): 26%
viability, T/C (second compound 0.316 µM, first compound 0.001 µM): 28.6%
viability, T/C (second compound 0.316 µM, first compound 0.00316 µM): 13.9%
viability, T/C (second compound 0.316 µM, first compound 0.01 µM): 12.1%
viability, T/C [5]: 7.95%
viability, T/C [6]: 3.56%
viability, T/C (second compound 1 µM, first compound 0.000316 µM): 18.2%
viability, T/C (second compound 1 µM, first compound 0.001 µM): 14.2%
viability, T/C (second compound 1 µM, first compound 0.00316 µM): 13.9%
viability, T/C (second compound 1 µM, first compound 0.01 µM): 6.42%
viability, T/C [7]: 5.57%
viability, T/C [8]: 2.65%
viability, T/C (second compound 3.16 µM, first compound 0.000316 µM): 13.7%
viability, T/C (second compound 3.16 µM, first compound 0.001 µM): 11.4%
viability, T/C (second compound 3.16 µM, first compound 0.00316 µM): 7.28%
viability, T/C (second compound 3.16 µM, first compound 0.01 µM): 4.66%
viability, T/C [9]: 4.51%
viability, T/C [10]: 2.8%
viability, T/C (second compound 10 µM, first compound 0.000316 µM): 9.87%
viability, T/C (second compound 10 µM, first compound 0.001 µM): 6.96%
viability, T/C (second compound 10 µM, first compound 0.00316 µM): 8.48%
viability, T/C (second compound 10 µM, first compound 0.01 µM): 4.45%
viability, T/C [11]: 3.9%
viability, T/C [12]: 1.75%
